Entries after “also recorded” stand apart in the source; their conditions may differ.
Tests used:
[1] = tested on: KRAS-mutant NSCLC (NCI-H358); test: Human tumor xenograft model, KRAS-mutant NSCLC; type: in vivo; settings: oral administration, single agent
Excerpt: (§1) Compound 1 has also been tested for in vivo anti-tumor activity in multiple xenograft models.

[2] = tested on: panel of kinases, receptors, ion channels, and transporters; test: Selectivity panel
Procedure: (§2) Compound 1 is a potent allosteric inhibitor of recombinant human SHP2, with inhibitory concentration of 50% (IC50) of 0.7 nM. It has been characterized in numerous nonclinical cancer models.

[3] = tested on: EGFR-amplified esophageal squamous cell carcinoma (KYSE-520); test: Human tumor xenograft model, EGFR-amplified esophageal squamous cell carcinoma; type: in vivo; settings: oral administration, single agent
Excerpt: as §1

[4] = tested on: EMT6 mammary carcinoma; test: Anti-tumor efficacy, EMT6 mammary carcinoma in BALB/c mice; type: in vivo
Procedure: Agents. Compound 1 was formulated in 50 mM Sodium Citrate buffer, pH3.0 at a concentration of […]. Anti-PD-L1 mAbs (Mu IgG2a anti-PD-L1, hereafter referred to as anti-PD-L1) and anti-gp120 isotype control (Mu IgG1 anti-gp120; hereafter referred to as Isotype Control) were formulated as a solution in buffer of 20 mM Histidine Acetate, 240 mM Sucrose, 0.02% Tween 20™, pH 5.5. An oral-dosed vehicle control was 50 mM Sodium Citrate buffer, pH3.0.
Cell Lines. The EMT6 mammary carcinoma cell line was cultured in vitro, harvested in log-phase growth, and resuspended in Hank's Balanced Salt Solution (HBSS) containing Matrigel™ (BD Biosciences; San Jose, CA) at a 1:1 ratio by volume for in vivo inoculation. Animals were each inoculated with 0.1×10^6 cells in the mammary gland (5, left) in a volume of […].
Mice tumor models. 10.6 weeks old Balb/c mice bearing tumors in the range of 141-196 mm^3 were evenly distributed into 4 study groups of 10 mice each. The mean tumor volume across all groups was 165 mm^3 at the start of dosing. The mean starting weight was 19.94 g. All concentrations were calculated based on a mean body weight of 20 g and adjusted for 10% body weight loss or gain. Mice in the various groups received the treatment regimens described in Table 1. Mice were dosed for a total of 28 days or until euthanized at first sign of morbidity or if body weight loss was >20% of their weight at the start of administration.
The study extended beyond 28 days and following the cessation of treatment to check for the durability of response and ended at day 102 wherein remaining mice were all euthanized.
Tumor and Body Weight Measurements. Tumor volumes were measured in two perpendicular dimensions (length and width) using Ultra Cal-IV calipers (model 54-10-111; Fred V. Fowler Co.; Newton, MA) and tumor volume was calculated according to the following formula: […]
Tumors that regressed by >50% relative to their starting volume during the study were categorized as partial responders (PRs) while tumors with a final tumor volume corresponding to full regression were categorized as complete responders (CRs). Animal body weights were measured using an Adventura Pro AV812 scale (Ohaus Corporation; Pine Brook, NJ) and percent change in body weight for each group was calculated and plotted (see FIG. 4). Percent weight change was calculated using the following formula: […]
Growth analysis and group comparisons. […] Analyses and comparisons of tumor growth were performed using a package of customized functions in R (Version 3.6.2); R Foundation for Statistical Computing; Vienna, Austria, which integrates software from open source packages (e.g., lme4, mgcv, gamm4, multcomp, settings, and plyr) and several packages from tidyverse (e.g., magrittr, dplyr, tidyr, and ggplot2) (Forrest et al.; Cancer Res 2020; 80(22):5089-97). All raw tumor volume measurements from 0 (minimum) to 8 mm^3 (maximum value) were judged to reflect complete tumor absence and were converted to 8 mm^3 prior to natural log transformation. A generalized additive mixed model (GAMM) was then applied to describe the changes in transformed tumor volumes over time using regression splines with automatically generated spline bases. This approach addresses both repeated measurements from the same study subjects and moderate dropouts before the end of the study. […]

[5] = Events associated with administration of Compound 1; type: in vivo; settings: reversible and monitorable events
Excerpt: Risks Associated with Compound 1.

[6] = Anti-proliferative effect in cancer cell lines, 2D and anchorage-independent 3D formats; type: cell-based; settings: numerous cell lines, 2D or 3D assays; read-out: IC50, proliferation
Excerpt: The anti-proliferative effect of Compound 1 has been assessed in multiple cancer cell lines using 2D and anchorage-independent 3D formats.

[7] = tested on: SHP2 (ERKT/2 phosphorylation at Thr202/Tyr204) in EGFR-amplified KYSE-520 cells; test: SHP2 inhibition in cells by level of ERK phosphorylation; type: cell-based; settings: Homo sapiens
Procedure: as §2

[8] = target: T1, recombinant human SHP2 (Homo sapiens, UniProt Q06124); test: Inhibition of recombinant human SHP2; type: biochemical; settings: allosteric inhibitor
T1 sequence (Q06124 1-593): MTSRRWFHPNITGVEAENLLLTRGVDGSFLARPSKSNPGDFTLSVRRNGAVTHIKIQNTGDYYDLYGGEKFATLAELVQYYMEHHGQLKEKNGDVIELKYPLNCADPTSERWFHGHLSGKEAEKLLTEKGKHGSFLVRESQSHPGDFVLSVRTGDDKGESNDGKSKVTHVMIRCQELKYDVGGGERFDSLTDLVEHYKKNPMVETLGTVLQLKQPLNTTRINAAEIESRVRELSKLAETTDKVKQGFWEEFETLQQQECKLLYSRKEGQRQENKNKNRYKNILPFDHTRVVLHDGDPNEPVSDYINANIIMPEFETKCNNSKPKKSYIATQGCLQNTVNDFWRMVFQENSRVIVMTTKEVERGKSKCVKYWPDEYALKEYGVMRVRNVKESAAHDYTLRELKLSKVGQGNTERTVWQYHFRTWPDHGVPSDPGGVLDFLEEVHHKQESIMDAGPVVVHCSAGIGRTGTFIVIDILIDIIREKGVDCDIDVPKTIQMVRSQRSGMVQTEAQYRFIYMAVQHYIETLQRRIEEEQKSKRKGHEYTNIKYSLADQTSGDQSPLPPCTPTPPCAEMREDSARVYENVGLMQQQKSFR
Procedure: as §2

[9] = tested on: EMT6 mammary tumors; test: Tumor immuno-profiling by flow cytometry after 7 days of treatment; type: in vivo, mice
Procedure: Tumor Immuno-profiling. Anti-tumor immunity was evaluated in EMT6 mammary tumors by flow cytometric immuno-profiling of tumor cells and tumor-infiltrating immune cells the tumor after 7-days of treatment with either vehicle and isotype control antibodies, single agent Compound 1 (60 mg/kg, PO, QD), anti-PD-L1 antibodies (10 mg/kg, IV, first dose, then 5 mg/kg, IP, twice per week), or the combination with of Compound 1 and anti-PD-L1.
The activation status of the TILs was assessed by assessing the expression of cytokines and effector molecules, including interferon gamma (IFNg), tumor necrosis factor alpha (TNFa) and granzyme B (GZMB) from tumor-derived T cells under restimulation conditions using PMA/ionomycin (FIG. 6A). […] There was also an increase of the frequency of CD8+ T cells expressing GZMB in tumors from mice treated with Compound 1 and anti-PD-L1 relative to the vehicle group (p=0.0137). (FIG. 6A). The polyfunctionality of tumor-infiltrating CD8^+ T cells (expressing IFNg and TNFa) was increased when mice were treated with Compound 1 alone or in combination with anti-PD-L1 antibodies relative to the vehicle group (p=0.0008 and p=0.0011, respectively). Markers of T cell activation and exhaustion were also assessed to determine if SHP2 inhibition by Compound 1 alone or in combination with anti-PD-L1 antibodies altered the phenotype of CD8+ T cells in the tumor.

[10] = Nonclinical safety studies; type: in vivo
Excerpt: Risks associated with MAPK-Pathway Class Inhibitors. Administration of MAPK-pathway inhibitors has been associated with cardiomyopathy, retinopathy, Cardiomyopathy, CPK increase, thromboembolic events, Phototoxicity, and Reproductive Toxicity.

[11] = tested on: Fc receptors; settings: cited from earlier work
[12] = in vivo; cited from earlier work

**Q.** Which results are given for `N[C@@H]1c2ccccc2OC12CCN(c1cnc3c(N4CCCc5ncccc54)n[nH]c3n1)CC2` [Compound 1, (R)-1′-(3-(3,4-dihydro-1,5-naphthyridin-1(2H)-yl)-1H-pyrazolo[3,4-b]pyrazin-6-yl)-3H-spiro[benzofuran-2,4′-piperidin]-3-amine]?
**A.** Anti-tumor efficacy, NCI-H358 xenograft [1]: significant anti-tumor efficacy; Selectivity against panel [2]: selectively inhibits SHP2; Anti-tumor efficacy, KYSE-520 xenograft [3]: significant anti-tumor efficacy; Legacy % TGI ([4]; AUC-based, relative to vehicle controls, Compound 1 60 mg/kg PO QD, anti-PD-L1 10 mg/kg IV then 5 mg/kg IP twice weekly): 47%; Anti-tumor efficacy (in words) ([4]; EMT6 syngeneic tumor model, Compound 1 60 mg/kg QD): no efficacy; EOS CR (complete responders at end of study) ([4]; end of study day 102, after cessation of 28-day dosing, 10 mice per group): 0 (0.0%); Growth Contrast, LN (GR) ([4]; relative to vehicle controls, Compound 1 60 mg/kg PO QD, anti-PD-L1 10 mg/kg IV first dose then 5 mg/kg IP twice weekly): −0.033 LN; PR (partial responders) ([4]; tumors regressed by >50% relative to starting volume, 10 mice per group): 0 (0.0%); Events associated with administration [5]: Peripheral Edema, Myelosuppression (e.g., Thrombocytopenia, Anemia), Gastrointestinal Toxicities (e.g., Diarrhea, Nausea, and Vomiting), Elevation of Hepatic Transaminase, and Rash; IC50 [6]: < 1 nM; IC50 [7]: 1.3 nM; IC50 [8]: 0.7 nM; IFNg expression on tumor-derived CD8+ T cells ([9]; PMA/ionomycin restimulation, vs vehicle, p=0.0002 (Compound 1), p=0.0001 (combination)): increase; TNFa expression on tumor-derived CD8+ T cells ([9]; PMA/ionomycin restimulation, vs vehicle, p=0.0016 (Compound 1), p=0.0035 (combination)): increase; MFI of PD-L1 expression on tumor cells (CD45 negative) ([9]; vs vehicle group, 7 days, p=0.0127 (Compound 1), p=0.0018 (combination)): significant increase; MFI of MHC-I expression on tumor cells (CD45 negative) ([9]; vs vehicle group, 7 days, p=0.0354 (Compound 1), p=0.0044 (combination)): significant increase; Polyfunctionality of tumor-infiltrating CD8+ T cells (co-expression of IFNg and TNFa) ([9]; vs vehicle group, p=0.0008 (Compound 1), p=0.0011 (combination)): increase; Frequency of M1 population of macrophages ([9]; vs vehicle group, p=0.0033 (Compound 1), p=0.0162 (combination)): increase; M2 population of macrophages ([9]; vs vehicle group, p=0.0036 (Compound 1), p=0.0007 (combination)): decrease; Frequency of CD8 T cell population in tumor microenvironment ([9]; vs vehicle group, p=0.0058 (Compound 1), p=0.008 (combination)): increase; Frequency of MDSCs in tumor ([9]; vs vehicle group, p=0.0058 (Compound 1), p=0.0083 (combination)): reduction; also recorded: reduced; Frequency of CD4 T cell population in tumor microenvironment ([9]; vs vehicle group, p=0.0067 (Compound 1), p=0.002 (combination)): increase; Frequency of TAMs in tumor ([9]; vs vehicle group, p=0.0072 (Compound 1), p=0.0098 (combination)): reduction; also recorded: reduced; Frequency of NK cells in tumor microenvironment ([9]; vs vehicle group, p=0.013 (Compound 1), p=0.024 (combination)): increase; Nonclinical toxicity findings [10]: did not show evidence of cardiac, pulmonary, renal, thromboembolic, or ophthalmic toxicities

**Q.** For “Atezolizumab: Fc-engineered, humanized, non-glycosylated IgG1 kappa immunoglobulin that binds PD-L1 (SEQ ID NO: 1 and 2)”, which “Binding to Fc receptors” value [11] is on record?
**A.** minimal binding to Fc receptors

**Q.** What about the Tolerability [12] of the same molecule?
**A.** generally well tolerated

Reference: patent publication US20250312339A1, “METHODS AND COMPOSITIONS COMPRISING A SHP2 INHIBITOR AND A PD-LI BINDING ANTAGONIST” (Genentech, Inc., priority 2022, published 2025)
